pEC50: −log10 of the molar value.
Target: Metabotropic glutamate receptor 4 (Homo sapiens, UniProt Q14833)
Assay: Receptor Activity Assay: The disclosed compounds and compositions can be evaluated for their ability to act as a potentiator of metabotropic glutamate receptor activity, in particular mGluR4 activity, by any suitable known methodology known in the art. For example, Chinese Hamster Ovary (CHO) cells transfected with human mGluR4 or HEK cells co-transfected with rat mGuR4 and the G-protein regulated Inwardly Rectifying Potassium channel (GIRK) were plated in clear bottom assay plates for assay in a Hamamatsu FDSS Fluorometric Plate Reader. The cells were loaded with either a Ca2+-sensitive fluorescent dye or the thallium responsive dye and the plates were washed and placed into a suitable kinetic plate reader. For human mGuR4 assays, a fluorescence baseline was established for 3-5 seconds, the disclosed compounds were then added to the cells, and the response in cells was measured. Approximately two and a half minutes later, a concentration of mGuR4 orthosteric agonist (e.g. glutamate or L-AP4) eliciting approximately 20% (EC20) of the maximal agonist response was added to the cells, and the response was measured. Two minutes later, a concentration of mGluR4 agonist (e.g. glutamate or L-AP4) eliciting 80% (EC80) of the maximal agonist response was added to the cells, and the response was measured. For rat mGuR4/GIRK experiments, a baseline was established for approximately five seconds, disclosed compounds were added, and either an EC20 or EC80 concentration of agonist was added approximately two and one half minutes later.

Sequence of Metabotropic glutamate receptor 4 (Q14833 whole entry): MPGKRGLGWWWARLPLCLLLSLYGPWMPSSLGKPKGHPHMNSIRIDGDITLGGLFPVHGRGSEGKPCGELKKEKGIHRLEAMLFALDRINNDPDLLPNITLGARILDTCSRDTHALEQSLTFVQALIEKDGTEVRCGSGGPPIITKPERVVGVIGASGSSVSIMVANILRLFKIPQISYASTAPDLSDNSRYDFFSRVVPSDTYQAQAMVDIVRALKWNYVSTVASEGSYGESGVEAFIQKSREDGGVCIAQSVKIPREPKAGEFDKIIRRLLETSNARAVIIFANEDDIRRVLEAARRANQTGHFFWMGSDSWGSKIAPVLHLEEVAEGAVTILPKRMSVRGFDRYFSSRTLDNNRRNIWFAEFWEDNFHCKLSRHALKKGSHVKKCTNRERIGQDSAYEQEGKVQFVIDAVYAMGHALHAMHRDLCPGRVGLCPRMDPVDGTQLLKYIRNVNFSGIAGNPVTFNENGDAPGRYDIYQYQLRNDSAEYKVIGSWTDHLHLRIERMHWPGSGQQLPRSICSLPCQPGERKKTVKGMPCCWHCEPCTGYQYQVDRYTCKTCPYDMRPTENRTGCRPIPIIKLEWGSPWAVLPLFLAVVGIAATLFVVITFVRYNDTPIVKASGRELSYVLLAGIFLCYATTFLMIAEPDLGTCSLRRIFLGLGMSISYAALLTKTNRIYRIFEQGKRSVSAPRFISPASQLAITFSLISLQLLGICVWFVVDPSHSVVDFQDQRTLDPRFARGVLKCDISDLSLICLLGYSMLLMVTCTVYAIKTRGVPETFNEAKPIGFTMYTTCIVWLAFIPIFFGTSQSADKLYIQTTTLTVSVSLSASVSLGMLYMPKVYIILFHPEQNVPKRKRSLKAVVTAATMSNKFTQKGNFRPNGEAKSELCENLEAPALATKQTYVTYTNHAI

SMILES | pEC50
c1cc2cc(Nc3n[nH]c4nccnc34)ccc2c(O[C@H]2CCOC2)n1 | 7.66
c1cnc2[nH]nc(Nc3ccc4c(O[C@@H]5CCOC5)nccc4c3)c2c1 | 7.19
c1cnc2c(Nc3ccc4c(O[C@@H]5CCOC5)nccc4c3)n[nH]c2c1 | 7.44
c1cnc2c(Nc3ccc4c(O[C@@H]5CCCOC5)nccc4c3)n[nH]c2c1 | 7.50
c1cnc2c(Nc3ccc4c(OCC5CCCOC5)nccc4c3)n[nH]c2c1 (stereo not drawn) | 7.80
C[C@H]1OCC[C@H]1Oc1nccc2cc(Nc3n[nH]c4cccnc34)ccc12 | 7.25
c1cnc2c(Nc3ccc4c(O[C@H]5CCCOC5)nccc4c3)n[nH]c2c1 | 7.56
c1cc2cc(Nc3n[nH]c4nccnc34)ccc2c(OCC2CCOCC2)n1 | 7.79
C[C@H]1C[C@H](Oc2nccc3cc(Nc4n[nH]c5cccnc45)ccc23)CO1 | 7.57
C[C@@H]1C[C@H](Oc2nccc3cc(Nc4n[nH]c5cccnc45)ccc23)CO1 | 7.32
c1cnc2[nH]nc(Nc3ccc4c(OCC5CCOCC5)nccc4c3)c2c1 | 7.34
c1cnc2[nH]nc(Nc3ccc4c(OCCN5CCOCC5)nccc4c3)c2c1 | 6.83
c1cc2cc(Nc3n[nH]c4nccnc34)ccc2c(O[C@@H]2CCOC2)n1 | 7.36
C[C@H]1C[C@H](Oc2nccc3cc(Nc4n[nH]c5ncccc45)ccc23)CO1 | 7.15
C[C@H]1OCC[C@H]1Oc1nccc2cc(Nc3n[nH]c4ncccc34)ccc12 | 6.81
C[C@@H]1C[C@H](Oc2nccc3cc(Nc4n[nH]c5ncccc45)ccc23)CO1 | 6.82
c1cnc2[nH]nc(Nc3ccc4c(OCC5CCOC5)nccc4c3)c2c1 (stereo not drawn) | 7.27
c1cnc2[nH]nc(Nc3ccc4c(O[C@H]5CCOC5)nccc4c3)c2c1 | 7.35
c1cc2cc(Nc3n[nH]c4nccnc34)ccc2c(OCC2CCOC2)n1 (stereo not drawn) | 7.98
c1cnc2c(Nc3ccc4c(OC5CCOCC5)nccc4c3)n[nH]c2c1 | 7.90
c1cnc2[nH]nc(Nc3ccc4c(OCC5COCCO5)nccc4c3)c2c1 (stereo not drawn) | 6.92
c1cnc2[nH]nc(Nc3ccc4c(OCC5CCCCO5)nccc4c3)c2c1 (stereo not drawn) | 7.12
c1cc2cc(Nc3n[nH]c4nccnc34)ccc2c(OCC2COCCO2)n1 (stereo not drawn) | 7.55

Further lines, results first:

pEC50 | SMILES
7.76 | CO[C@H](C)COc1nccc2cc(Nc3n[nH]c4nccnc34)ccc12
7.67 | CCOCCOc1nccc2cc(Nc3n[nH]c4nccnc34)ccc12
7.90 | c1cnc2c(Nc3ccc4c(OCC5COCCO5)nccc4c3)n[nH]c2c1 (stereo not drawn)
7.32 | CCOCCOc1nccc2cc(Nc3n[nH]c4ncccc34)ccc12
7.08 | Fc1cnc2c(Nc3ccc4c(O[C@H]5CCOC5)nccc4c3)n[nH]c2c1
7.29 | COCCOc1nccc2cc(Nc3n[nH]c4ncccc34)ccc12
7.65 | CCOCCOc1nccc2cc(Nc3n[nH]c4cccnc34)ccc12
7.70 | COCCOc1nccc2cc(Nc3n[nH]c4cccnc34)ccc12
7.16 | COCCOc1nccc2cc(Nc3n[nH]c4cc(F)cnc34)ccc12
7.44 | Fc1cnc2c(Nc3ccc4c(OCC5COCCO5)nccc4c3)n[nH]c2c1 (stereo not drawn)
7.42 | c1cnc2c(Nc3ccc4c(O[C@H]5CCOC5)nccc4c3)n[nH]c2c1
7.84 | CO[C@H](C)COc1nccc2cc(Nc3n[nH]c4cccnc34)ccc12
7.45 | COCCOc1nccc2cc(Nc3n[nH]c4nccnc34)ccc12
7.92 | c1cnc2c(Nc3ccc4c(OCC5CCOC5)nccc4c3)n[nH]c2c1 (stereo not drawn)
7.08 | COCCOc1nccc2cc(Nc3n[nH]c4ncc(F)cc34)ccc12
6.93 | Fc1cnc2[nH]nc(Nc3ccc4c(OC5CCOCC5)nccc4c3)c2c1
7.94 | c1cnc2c(Nc3ccc4c(OCC5CCOCC5)nccc4c3)n[nH]c2c1
7.11 | CO[C@H](C)COc1nccc2cc(Nc3n[nH]c4ncccc34)ccc12
7.11 | COCCOc1nccc2cc(Nc3n[nH]c4ccccc34)ccc12
7.39 | c1cnc2c(Nc3ccc4c(OCCN5CCOCC5)nccc4c3)n[nH]c2c1
